T/C data for 20 compounds are collected here from PubChem BioAssay AID256 (DTP/NCI, 2004).

This assay relates to CD2F1 mice, L1210 leukemia ip, survival T/C. The assay is described as follows: NCI In Vivo Anticancer Drug Screen. Data for tumor model L1210 Leukemia (intraperitoneal) in CD2F1 (CDF1) mice. To be noted: higher = longer survival. Put shortly:
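Ratio T/C, where T is the treated-group value and C the vehicle-dosed control value, from mice implanted with a transplantable tumor.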

Where [1] appears, read: endpoint: mean survival time, dose: 12.5 mg/kg/injection, schedule: Q01DX009 (ip), vehicle: saline with Tween-80.
Where [2] appears, read: endpoint: mean survival time, dose: 25.0 mg/kg/injection, schedule: Q01DX009 (ip), vehicle: saline with Tween-80.
[3] abbreviates: endpoint: mean survival time, dose: 50.0 mg/kg/injection, schedule: Q01DX009 (ip), vehicle: saline with Tween-80.
[4] abbreviates: endpoint: mean survival time, dose: 100.0 mg/kg/injection, schedule: Q01DX009 (ip), vehicle: saline with Tween-80.
[5] abbreviates: endpoint: mean survival time, dose: 400.0 mg/kg/injection, schedule: Q01DX009 (ip), vehicle: saline with Tween-80.
Where [6] appears, read: endpoint: mean survival time, dose: 200.0 mg/kg/injection, schedule: Q01DX009 (ip), vehicle: saline with Tween-80.
The mark [7] stands for this setting: endpoint: mean survival time, dose: 100.0 mg/kg/injection, schedule: Q01DX001 (ip), vehicle: saline.
Where [8] appears, read: endpoint: mean survival time, dose: 50.0 mg/kg/injection, schedule: Q01DX009 (ip), vehicle: other.

Where “and” joins values, the source holds several entries; their conditions need not be identical. Identical values can stand only once. Toxic doses and inconclusive results are not listed.

`Cn1ccc(=Nc2ccc(NC(=O)c3ccc(N=c4ccn(C)c5ccc([N+](=O)[O-])cc45)cc3[N+](=O)[O-])cc2)cc1`: the T/C under setting [1] is 101 % of control; the T/C under setting [2] was 113 % of control; the T/C under setting [3] is 119 % of control; the T/C under setting [4] was 119 % of control; the T/C under setting [5] is 95 % of control.
Regarding `CCC1C(C)CNC1C` (stereo not given), for the setting “endpoint: mean survival time, dose: 100.0 mg/kg/injection, schedule: Q01DX001 (ip), vehicle: saline with Tween-80”, the T/C was 100 % of control.
For `N#CSCc1ccccc1`, the T/C under setting [1] is 100 % of control.
With `Cn1c(N)nc2nc[nH]c2c1=S`, the T/C reads like this: (endpoint: mean survival time, dose: 16.0 mg/kg/injection, schedule: Q01DX008 (iv), vehicle: saline) 100 % of control; (endpoint: mean survival time, dose: 32.0 mg/kg/injection, schedule: Q01DX008 (iv), vehicle: saline) 98 % of control; (endpoint: mean survival time, dose: 64.0 mg/kg/injection, schedule: Q01DX008 (iv), vehicle: saline) 105 % of control.
Regarding `CCCCNC(C)C1(O)Cc2c(O)c3c(c(O)c2C(OC2CC(N)C(O)C(C)O2)C1)C(=O)c1c(OC)cccc1C3=O` (stereo not given), the T/C is 121 % of control (endpoint: mean survival time, dose: 10.0 mg/kg/injection, schedule: Q01DX009 (ip), vehicle: water) and 119 % of control (endpoint: mean survival time, dose: 160.0 mg/kg/injection, schedule: Q01DX009 (ip), vehicle: water).
Regarding `O=C1C=C(c2ccccc2)C2(c3ccccc3)C1C1C(c3ccccc3)=C(c3ccccc3)C2C1(O)c1ccc2ccccc2c1` (stereo not given), the T/C is, setting by setting: under setting [4], 89 % of control; under setting [6], 92 % of control; under setting [5], 92 % of control.
With `N#Cc1ccc(NN=O)nc1`, the T/C by setting is: (endpoint: median survival time, dose: 3.12 mg/kg/injection, schedule: Q01DX005 (ip), vehicle: water) 109 % of control; (endpoint: median survival time, dose: 6.25 mg/kg/injection, schedule: Q01DX005 (ip), vehicle: water) 120 % of control; (endpoint: median survival time, dose: 12.5 mg/kg/injection, schedule: Q01DX005 (ip), vehicle: water) 124 % of control; (endpoint: median survival time, dose: 15.0 mg/kg/injection, schedule: Q01DX005 (ip), vehicle: water) 152 % of control and 158 % of control; (endpoint: median survival time, dose: 25.0 mg/kg/injection, schedule: Q01DX005 (ip), vehicle: water) 164 % of control and 175 % of control; (endpoint: median survival time, dose: 41.66 mg/kg/injection, schedule: Q01DX005 (ip), vehicle: water) 191 % of control. Also, the T/C reads like this: (endpoint: median survival time, dose: 50.0 mg/kg/injection, schedule: Q01DX005 (ip), vehicle: water) 95 % of control; (endpoint: median survival time, dose: 69.4 mg/kg/injection, schedule: Q01DX005 (ip), vehicle: water) 118 % of control.
With `O=C1CC2CCN(C(=O)c3ccccc3)C(Cc3c[nH]c4ccccc34)C2O1` (stereo not given), the T/C was 105 % of control under setting [7]; 94 % of control (endpoint: mean survival time, dose: 200.0 mg/kg/injection, schedule: Q01DX001 (ip), vehicle: saline); 93 % of control (endpoint: mean survival time, dose: 400.0 mg/kg/injection, schedule: Q01DX001 (ip), vehicle: saline).
Consider `CN(C)c1ccn(C2OC(CO)C(O)C2O)c(=O)n1` (stereo not given), for which the T/C runs as follows: (endpoint: mean survival time, dose: 100.0 mg/kg/injection, schedule: Q01DX005 (ip), vehicle: water) 107 % of control; (endpoint: mean survival time, dose: 200.0 mg/kg/injection, schedule: Q01DX005 (ip), vehicle: water) 103 % of control; (endpoint: mean survival time, dose: 400.0 mg/kg/injection, schedule: Q01DX005 (ip), vehicle: water) 115 % of control.
As to `CS(=O)(=O)OCCNc1ccc([N+](=O)[O-])cc1`, the T/C runs as follows: (endpoint: mean survival time, dose: 8.0 mg/kg/injection, schedule: Q01DX001 (ip), vehicle: saline) 100 % of control; (endpoint: mean survival time, dose: 10.0 mg/kg/injection, schedule: Q01DX010 (ip), vehicle: saline) 103 % of control; (endpoint: mean survival time, dose: 16.0 mg/kg/injection, schedule: Q01DX001 (ip), vehicle: saline) 95 % of control; (endpoint: mean survival time, dose: 30.0 mg/kg/injection, schedule: Q01DX010 (ip), vehicle: saline) 113 % of control; (endpoint: mean survival time, dose: 32.0 mg/kg/injection, schedule: Q01DX001 (ip), vehicle: saline) 98 % of control; (endpoint: mean survival time, dose: 64.0 mg/kg/injection, schedule: Q01DX001 (ip), vehicle: saline) 90 % of control and 100 % of control. Further, the T/C is, setting by setting: (endpoint: mean survival time, dose: 100.0 mg/kg/injection, schedule: Q01DX010 (ip), vehicle: saline) 119 % of control; (endpoint: mean survival time, dose: 128.0 mg/kg/injection, schedule: Q01DX001 (ip), vehicle: saline) 96 % of control; (endpoint: mean survival time, dose: 256.0 mg/kg/injection, schedule: Q01DX001 (ip), vehicle: saline) 96 % of control; (endpoint: mean survival time, dose: 300.0 mg/kg/injection, schedule: Q01DX010 (ip), vehicle: saline) 97 % of control.
Take `O=C(NC(=S)Nc1cccc(F)c1)c1cccc(Br)c1`: the T/C by setting is: under setting [8], 98 % of control and 104 % of control; (endpoint: mean survival time, dose: 50.0 mg/kg/injection, schedule: Q04DX003 (ip), vehicle: other) 111 % of control; (endpoint: mean survival time, dose: 100.0 mg/kg/injection, schedule: Q01DX001 (ip), vehicle: other) 102 % of control; (endpoint: mean survival time, dose: 100.0 mg/kg/injection, schedule: Q04DX002 (ip), vehicle: other) 95 % of control; (endpoint: mean survival time, dose: 100.0 mg/kg/injection, schedule: Q04DX003 (ip), vehicle: other) 104 % of control; (endpoint: mean survival time, dose: 200.0 mg/kg/injection, schedule: Q01DX001 (ip), vehicle: other) 98 % of control. The T/C was 91 % of control (endpoint: mean survival time, dose: 200.0 mg/kg/injection, schedule: Q04DX002 (ip), vehicle: other); 102 % of control (endpoint: mean survival time, dose: 200.0 mg/kg/injection, schedule: Q04DX003 (ip), vehicle: other); 101 % of control (endpoint: mean survival time, dose: 400.0 mg/kg/injection, schedule: Q04DX002 (ip), vehicle: other); 106 % of control (endpoint: mean survival time, dose: 400.0 mg/kg/injection, schedule: Q04DX003 (ip), vehicle: other).
As to `Ic1cccs1`, under setting [7], the T/C was 95 % of control.
Turning to `CN(C)C(=O)c1ccc(Cl)c(Cl)c1`, the T/C under setting [4] was 102 % of control and the T/C under setting [6] was 107 % of control.
Consider `CC(C(=O)c1cccs1)=C(C(F)(F)F)C(F)(F)F`, for which the T/C is 100 % of control (endpoint: mean survival time, dose: 6.25 mg/kg/injection, schedule: Q01DX009 (ip), vehicle: other); 94 % of control (endpoint: mean survival time, dose: 12.5 mg/kg/injection, schedule: Q01DX009 (ip), vehicle: other); 100 % of control (endpoint: mean survival time, dose: 25.0 mg/kg/injection, schedule: Q01DX009 (ip), vehicle: other); 97 % of control under setting [8].
Consider `Cc1cc(C)c(O)c(C)c1`, for which the T/C by setting is: (endpoint: mean survival time, dose: 50.0 mg/kg/injection, schedule: Q01DX009 (ip), vehicle: Klucel (hydroxypropylcellulose) (HPC)) 96 % of control; (endpoint: mean survival time, dose: 100.0 mg/kg/injection, schedule: Q01DX009 (ip), vehicle: Klucel (hydroxypropylcellulose) (HPC)) 93 % of control; (endpoint: mean survival time, dose: 200.0 mg/kg/injection, schedule: Q01DX009 (ip), vehicle: Klucel (hydroxypropylcellulose) (HPC)) 93 % of control.
In the case of `O=[N+]([O-])c1ccc(O)c(Cl)c1`, the T/C under setting [1] was 86 % of control; the T/C under setting [2] was 89 % of control; the T/C under setting [3] was 106 % of control and 108 % of control.
Turning to `COc1ccc2cc(CC(=O)c3ccccc3)ccc2c1`, the T/C is, setting by setting: under setting [4], 100 % of control; under setting [6], 96 % of control; under setting [5], 90 % of control.
With `CCOC(=O)Nc1nccs1`, the T/C by setting is: under setting [2], 98 % of control; under setting [3], 100 % of control; under setting [4], 98 % of control; (endpoint: mean survival time, dose: 100.0 mg/kg/injection, schedule: Q04DX003 (ip), vehicle: Klucel (hydroxypropylcellulose) (HPC)) 101 % of control; (endpoint: mean survival time, dose: 200.0 mg/kg/injection, schedule: Q04DX003 (ip), vehicle: Klucel (hydroxypropylcellulose) (HPC)) 97 % of control.
With `CN(Cc1ccccc1)N=Nc1ccccc1`, the T/C reads like this: (endpoint: mean survival time, dose: 18.75 mg/kg/injection, schedule: Q01DX009 (ip), vehicle: Klucel (hydroxypropylcellulose) (HPC)) 103 % of control; (endpoint: mean survival time, dose: 37.5 mg/kg/injection, schedule: Q01DX009 (ip), vehicle: Klucel (hydroxypropylcellulose) (HPC)) 107 % of control; (endpoint: mean survival time, dose: 75.0 mg/kg/injection, schedule: Q01DX001 (ip), vehicle: saline) 108 % of control; (endpoint: mean survival time, dose: 75.0 mg/kg/injection, schedule: Q01DX009 (ip), vehicle: Klucel (hydroxypropylcellulose) (HPC)) 113 % of control; (endpoint: mean survival time, dose: 150.0 mg/kg/injection, schedule: Q01DX001 (ip), vehicle: saline) 108 % of control; (endpoint: mean survival time, dose: 150.0 mg/kg/injection, schedule: Q01DX009 (ip), vehicle: Klucel (hydroxypropylcellulose) (HPC)) 119 % of control. Further, the T/C (endpoint: mean survival time, dose: 300.0 mg/kg/injection, schedule: Q01DX001 (ip), vehicle: saline) is 111 % of control.
`C=CCOCC(O)CNCCCC` (stereo not given): the T/C by setting is: (endpoint: mean survival time, dose: 12.5 mg/kg/injection, schedule: Q01DX009 (ip), vehicle: saline) 96 % of control; (endpoint: mean survival time, dose: 25.0 mg/kg/injection, schedule: Q01DX009 (ip), vehicle: saline) 107 % of control; (endpoint: mean survival time, dose: 50.0 mg/kg/injection, schedule: Q01DX009 (ip), vehicle: saline) 96 % of control and 111 % of control.
